Test results as given in BindingDB's records for doi:10.1016/s0960-894x(02)00236-6 (University of Virginia, 2002).

Columns and labels:
[1] = AE maximal score at Adenosine A1 receptor
[2] = AE maximal score at Adenosine A3 receptor
[3] = AE maximal score at Adenosine A2A receptor

Structure (SMILES) | EC50 [1] [µM] | EC50 [2] [µM] | EC50 [3] [pM]
CC(=O)Oc1ccc2c(c1)CCc1sc(N)nc1-2 | 158 | – | –
COc1ccc2c(c1)CCc1sc(N)nc1-2 | 0.002 | – | –
COc1cc2c(cc1OC)-c1nc(N)sc1C2 | – | 794 | 1
